Converted amounts (≈) assume the structure as drawn. Where a name gives a salt, the structure may show the parent alone. Read-outs that look alike come from different tables or passages of the source.
Experiments:
S. epidermidis = test: Tier 1 Anaerobic MIC Assay; format: cell-based, Staphylococcus epidermidis (clinical isolate); details: for MIC: Staphylococcus epidermidis, read-out: microbial inhibition concentration (MIC)
Excerpt: (§1) 1. Tier 1 Anaerobic MIC Assay
(§2) The data in Table 2 above was generated with the following test method. The purpose of this assay is to determine if a compound or formulation has an antimicrobial effect in vitro.
(§3) It is understood that when not specifically noted in this procedure: • a) All materials, reagents and equipment required for this procedure are of appropriate design and condition of cleanliness and/or sterility as determined by their intended use. • b) The operator has been trained in aseptic technique and has been qualified to perform the procedure and accurately interpret the results. • c) All media required for this procedure was manufactured by a reputable commercial source egg. Difco, Merck etc. and has been stored and prepared as per manufacturer's instructions. • d) All routine laboratory controls, including but not limited to, media function and growth promotion tests, verification of sterility and use of positive and negative controls are being conducted.
(§4) Procedure: (All Procedures Performed in Anaerobic Chamber Except where Noted)
(§5) Incubator at 37° C.; 20-200 ul channel pipette; 5-50 ul channel pipette; 1250 ul 8 channel Thermo Scientific Matrix pipette; 96 well plate shaker (located in incubator); Beckman Coulter deep well cap mat #267005; Beckman Coulter deep 96 well plates #267007; Falcon 96 well tissue culture plates #353072; Vortexer; Culture tubes/caps Disposable sterile gloves; Sterile petri dishes; Standard microbiological lab equipment (sterile pipettes, syringes, tips, loops, etc.); Glass bottles/flasks for media; Autoclave; Parafilm; Spectrophotometer.
(§6) • 0.9% or 0.85% saline solution • BHI agar supplemented with 1% Tween 80 • BHI media supplemented with 1% Tween 80 3. Microbial Strains
Staphylococcus epidermidis (clinical isolate)
(§7) Prior to testing streak organisms for isolation on BHI with 1% Tween 80 plates, wrap with parafilm and place in 37° C. incubator. When isolated colonies appear remove one representative colony from each plate and place each in 5 ml of BHI with 1% Tween 80 media. Incubate at 37° C. with shaking overnight. Inoculate 20 ml BHI with 1% Tween 80 (per 96 deep well plate to be tested) with 20 ul of the overnight culture (1-1000 dilution).
(§8) Compounds/formulations to be tested are diluted across a 96 deep well plate as shown below (for a 1% stock solution). 800 ul of 0.85% saline is added to wells A1 and B1 (as these will be the negative and positive control respectively). 800 ul each 1% stock solution+positive control are added to wells C1 through H1. 400 ul 0.85% saline are added to all other wells. 400 ul is then removed from #1 well added to the #2 well and mixed. This is then continued across the plate resulting in a 50% dilution between wells across the plate (this can be easily accomplished with an automatic 8 channel Matrix pipette set to withdraw, dispense and mix).
(§9) In row A of a 96 deep well plate pipette 180 ul of sterile BHI with 1% Tween 80 as a negative growth control. All other wells receive 180 ul of inoculum. From the master plate introduce 20 ul to the corresponding row in the test plate using an 8-channel pipette. Loaded plates are placed on a plate shaker in the 37° C. incubator and incubated overnight. The next day read the O.D. 600 on a plate reader. The MIC is the last well from the right that has no bacterial growth.

C. mucofaciens = test: Tier 1 Anaerobic MIC Assay; format: cell-based, Corynebacterium mucofaciens (clinical isolate); details: for MIC: Corynebacterium, read-out: microbial inhibition concentration (MIC)
Excerpt: as §1, §2, §3, §4, §5, §6
Corynebacterium mucofaciens (clinical isolate)
as §7, §8, §9

[1] = tested on: two key underarm bacteria strains; test: Raw material microbial inhibition, summary in words; format: cell-based; details: C. mucofaciens and S. epidermidis
Excerpt: The data in Table 2 above was generated with the following test method.

[2] = anaerobic, 37° C. overnight, O.D. 600

SMILES | microbial inhibition concentration (MIC) (S. epidermidis; [2]) [ppm] | microbial inhibition concentration (MIC) (C. mucofaciens; [2]) [ppm] | performance against the bacteria as raw materials [1] | MIC (S. epidermidis; [2]) [µg/mL] | MIC (C. mucofaciens; [2]) [µg/mL] | also measured
CCCCCCCCC(CO)CCCCCC (stereo not shown) [Hexyl Decanol] | 3031 | 6062 |  |  |  | 
CCCCC(CC)COCC(O)CO (stereo not shown) [Ethylhexyl glycerin] | 12500 | 12500 |  |  |  | 
C=CCCCCCCCCC(=O)N[C@@H](Cc1ccccc1)C(=O)O [Sepiwhite] | 1000 | 2000 | performing well |  |  | 
CCOC(=O)CC(O)(CC(=O)OCC)C(=O)OCC [triethyl citrate] |  |  | performing well | 1600 | 1600 | 
CC(C)=CCCC(C)=CCCC(C)=CCO [Farnesol] |  |  |  | 5940 (≈ 26.7 mM) | 47500 (≈ 214 mM) | 
Cc1cc(CC(C)CC(C)(C)C)n(O)c(=O)c1.NCCO (stereo not shown) [piroctone olamine, 1-Hydroxy-4-methyl-6-(2,4,4-trimethylpentyl)-2-pyridone monoethanolamine salt, reference compound] |  |  | perform particularly well | 10 | < 5 | 
COC(=O)CCC(=O)OC [dimethyl succinate] |  |  | performing well | 3060 | 1530 | 
CC/C=C\C/C=C\C/C=C\CCCCCCCC(=O)O [linolenic acid] |  |  |  | 1090 (≈ 3.93 mM) | 1090 (≈ 3.93 mM) | 
CCCCCCCCCCCCCC(=O)OC(C)C [Isopropyl Myristate] |  |  |  | > 59000 | > 59000 | 
CC(C)=CCCC(C)=CC=O [citral] |  |  | performing well | 1500 (≈ 9.85 mM) | 1500 (≈ 9.85 mM) | 
C=CC(C)(O)CCC=C(C)CCC=C(C)C (stereo not shown) [Nerolidol] |  |  |  | > 49000 | > 49000 | 
CCCCC/C=C\C/C=C\CCCCCCCC(=O)O [Linoleic acid] |  |  |  | 3120 (≈ 11.1 mM) | 3120 (≈ 11.1 mM) | 
[Cl-].[Na+] [NaCl] | >25000 | >25000 |  |  |  | 
O=C([O-])[O-].[Ca+2] [calcium carbonate] | >2500 | >2500 | performing moderately well |  |  | 
[Ca+2].[Cl-].[Cl-] [CaCl] | >50000 | >50000 |  |  |  | 
C/C(=C\CO)CCC[C@H](C)CCC[C@H](C)CCCC(C)C [Phytol] |  |  |  | > 49000 | > 49000 | 
C=CCc1ccc(O)c(OC)c1 [eugenol] |  |  | performing well | 773 (≈ 4.71 mM) | 773 (≈ 4.71 mM) | 
N=C(N)c1ccc(OCCCCCCOc2ccc(C(=N)N)cc2)cc1 [hexamidine] |  |  |  |  |  | MIC (S. epidermidis): 7 µg/mL (≈ 0.0197 mM); MIC (C. mucofaciens): < 2 µg/mL
